Experimental data taken from the supplement of paper PMC10307832.

Columns and labels:
Assay in all cases: relative viability (nuclei count vs DMSO), 5 days (fraction); higher = more cells survive
SGI-1776 + OSI-027 = compound: CN1CCC(CNc2ccc3ncc(-c4cccc(OC(F)(F)F)c4)n3n2)CC1 [SGI-1776] + COc1cccc2cc(-c3nc([C@H]4CC[C@H](C(=O)O)CC4)n4ncnc(N)c34)[nH]c12 [OSI-027] (partner 0.5 µM)
Method in brief: (§1)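 Cells from lung cancer lines were seeded into 1536-well plates and, one day later, dosed by pin tool. Treatments were either a single drug or a fixed dose of an anchor drug with five library-drug doses (not always all listed) in √10 steps. After 5 days, nuclei were stained in a one-step fixation (final 0.05% Triton X-100, 1% formaldehyde, 1 ug/ml Hoechst) and counted on 4× images, and relative viability is the treated-to-vehicle nuclei ratio, as the median of duplicate plates.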

SGI-1776 + Olaparib = compound: CN1CCC(CNc2ccc3ncc(-c4cccc(OC(F)(F)F)c4)n3n2)CC1 [SGI-1776] + O=C(c1cc(Cc2n[nH]c(=O)c3ccccc23)ccc1F)N1CCN(C(=O)C2CC2)CC1 [Olaparib] (partner 8 µM)
Method in brief: as §1

Entinostat + Pictilisib = compound: Nc1ccccc1NC(=O)c1ccc(CNC(=O)OCc2cccnc2)cc1 [Entinostat] + CS(=O)(=O)N1CCN(Cc2cc3nc(-c4cccc5[nH]ncc45)nc(N4CCOCC4)c3s2)CC1 [Pictilisib] (partner 1 µM)
Method in brief: as §1

Entinostat + Olaparib = compound: Nc1ccccc1NC(=O)c1ccc(CNC(=O)OCc2cccnc2)cc1 [Entinostat] + O=C(c1cc(Cc2n[nH]c(=O)c3ccccc23)ccc1F)N1CCN(C(=O)C2CC2)CC1 [Olaparib] (partner 8 µM)
Method in brief: as §1

Cell Line	relative viability (SGI-1776 + OSI-027; first compound 0.08 µM)	relative viability (SGI-1776 + OSI-027; first compound 0.8 µM)	relative viability (SGI-1776 + OSI-027; first compound 2.53 µM)	relative viability (SGI-1776 + OSI-027; first compound 8 µM)	relative viability (SGI-1776 + Olaparib; first compound 0.08 µM)	relative viability (SGI-1776 + Olaparib; first compound 0.8 µM)	relative viability (SGI-1776 + Olaparib; first compound 2.53 µM)	relative viability (SGI-1776 + Olaparib; first compound 8 µM)	relative viability (Entinostat + Pictilisib; first compound 0.02 µM)	relative viability (Entinostat + Pictilisib; first compound 0.06325 µM)	relative viability (Entinostat + Pictilisib; first compound 0.2 µM)	relative viability (Entinostat + Pictilisib; first compound 0.6325 µM)	relative viability (Entinostat + Pictilisib; first compound 2 µM)	relative viability (Entinostat + Olaparib; first compound 0.02 µM)	relative viability (Entinostat + Olaparib; first compound 0.06325 µM)	relative viability (Entinostat + Olaparib; first compound 0.2 µM)	relative viability (Entinostat + Olaparib; first compound 0.6325 µM)	relative viability (Entinostat + Olaparib; first compound 2 µM)
EMC-BAC-2	0.355	0.371	0.363	0.319	0.504	0.506	0.509	0.452	0.579	0.595	0.628	0.352	0.289	0.48	0.444	0.388	0.3	0.23
NCI-H650	0.565	0.489	0.501	0.378	0.455	0.409	0.438	0.326	0.934	0.914	0.75	0.579	0.269	0.43	0.425	0.363	0.21	0.171
LU99A	0.294	0.286	0.303	0.262	0.304	0.312	0.305	0.238	0.289	0.326	0.334	0.271	0.231	0.236	0.264	0.274	0.198	0.164
NCI-H2347	0.421	0.489	0.518	0.426	0.606	0.674	0.632	0.614	0.494	0.321	0.333	0.216	0.345	0.636	0.537	0.455	0.35	0.32
NCI-H2009	0.653	0.636	0.591	0.282	0.714	0.769	0.688	0.623	0.811	0.941	0.882	0.73	0.546	0.673	0.695	0.639	0.486	0.434
HCC-827	0.804	0.843	0.793	0.602	0.694	0.615	0.739	0.658	1.02	0.774	0.683	0.754	0.478	0.587	0.623	0.488	0.322	0.237
NCI-H661	0.766	0.867	0.611	0.596	0.733	0.754	0.843	0.846	0.47	0.614	0.559	0.565	0.407	0.696	0.721	0.641	0.567	0.339
CAL-12T	0.771	0.592	0.652	0.481	0.713	0.738	0.833	0.696	0.537	0.546	0.544	0.303	0.323	0.728	0.781	0.854	0.767	0.572
PC-14	0.857	0.945	0.671	0.0734	0.285	0.367	0.305	0.114	0.602	0.516	0.5	0.189	0.0672	0.291	0.294	0.321	0.104	0.0475
